# Data taken from patent US11236110B2 (priority 2017, dated 2022).
# Key:
# [1] = acidic counter-ion; cited from earlier work
# [2] = Preliminary miscibility assays on the free base in selected solvents; assay type: physicochemical; details: for Miscibility: number of volumes needed to dissolve the oil at room temperature
# Text: Preliminary Miscibility Assays on (R)-9-(2,5-difluorophenethyl)-4-ethyl-2-methyl-1-oxa-4,9-diazaspiro[5.5]undecan-3-One Free Base
smiles,measurement,setting,value
Br [Hydrobromic acid],pKa1,[1],−6
"CCN1CC2(CCN(CCc3cc(F)ccc3F)CC2)O[C@H](C)C1=O [(R)-9-(2,5-difluorophenethyl)-4-ethyl-2-methyl-1-oxa-4,9-diazaspiro[5.5]undecan-3-one]",miscibility of the oil with the solvents tested,"[2]; room temperature, all the solvents tested (Table 2)",freely miscible
same,Miscibility,[2]; solvent H2O,10 V
same,Miscibility,[2]; solvent IPA (isopropanol),10 V
same,Miscibility,[2]; solvent MIK (methyl isobutyl ketone),10 V
same,Miscibility,[2]; solvent THF (tetrahydrofuran),10 V
same,Miscibility,[2]; solvent Toluene,10 V
O=[N+]([O-])O [Nitric acid],pKa1,[1],−1.4
O=C(O)[C@@H](O)c1ccccc1 [(S)-(+)-Mandelic acid],pKa1,[1],3.4
